Source: paper PMC5601738, “Facile total synthesis of lysicamine and the anticancer activities of the Ru^II, Rh^III, Mn^II and Zn^II complexes of lysicamine” (Oncotarget, 2017)
Values joined by “and” are separate entries in the source; they are usually repeats but may differ in a detail not shown here. Equal values may be shown once. Read-outs that look alike come from different tables or passages of the source.

Legend:
HepG2 = assay: MTT assay, HepG2 cells; details: for IC50: read-out: IC50 HepG2
BEL-7404 = assay: MTT assay, BEL-7404 cells; assay type: cell-based, human; details: 48 h; for IC50: MTT, mean ± SD from five independent experiments
T-24 = assay: MTT assay, T-24 cells; assay type: cell-based, human; details: 48 h; for IC50: MTT, mean ± SD from five independent experiments
NCI-H460 = assay: MTT assay, NCI-H460 cells; assay type: cell-based, human; details: 48 h; for IC50: MTT, mean ± SD from five independent experiments
[1] = system: HL-7702 normal liver cell; assay: MTT assay, HL-7702 normal liver cell; assay type: cell-based; details: 48 h; for IC50: MTT, mean ± SD from five independent experiments
ct-DNA = assay: CD absorption spectrometry assay with ct-DNA; assay type: binding; details: ct-DNA 1×10^−4 M, [DNA]/[compound] 10:0.5 to 10:2.0
HepG2 cells = assay: Cell cycle analysis by flow cytometry; assay type: cell-based, human; details: HepG2, 24 h
pBR322 plasmid DNA = assay: Agarose gel electrophoresis assay with pBR322 plasmid DNA; assay type: biochemical; details: pBR322 0.5 μg/μL, TBE buffer pH=8.5, 10 to 100 μM
Method: The DNA cleavage activity of 2, 3 and LY were tested by agarose gel electrophoresis assay using pBR322 plasmid DNA (0.5 μg/μL) in TBE buffer (pH=8.5). […] In contrast, under the same experimental conditions, when the concentration of 2 increased from 10 μM to 50 μM, the mobility of supercoiled DNA (form I) was reduced, but the relaxed form (form II) was not observed. When the concentration of 2 increased further to 70 μM, the form II DNA appeared. Almost all supercoiled DNA (form I) changed to relaxed DNA (form II) when the concentration of 2 reached 90 and 100 μM.
RT-qPCR was performed. The threshold cycle (Ct) values approval no. SCXK 2014-0002 and SYXK 2014-0003), […]
were housed at a sterile environment with conditions of […]
than 3 days before used. Complexes and LYwere all […]
is limited in 1% in final working solutions. KM mice. The large concentration of 2 in 10% (v/v) […]
ct-DNA CD spectrum as control.
The HepG2 xenograft mice were induced by
37 °C in the dark for 4 h.
The percent weight loss or gain was calculated […]
imaging system under a UV-Vis transilluminator.. Percent tumour growth inhibition after initiation of treatment with 2 and cisplatin were calculated by TGI= […]
initial for control group).
Animals were supplied by Guangxi Medical
University Laboratory Animal Centre (Guangxi, China, […]

HepG2 xenograft = HepG2 xenograft model
[2] = metal salts 1× 10-4 mol/L, 48 h

SMILES: O.O.O.[Cl][Rh]([Cl])[Cl] [RhCl3·3H2O, reference compound]
- inhibitive ratio Hep-G2 (HepG2; [2]): 24.02±1.02%
- inhibitive ratio BEL-7404 (BEL-7404; metal salts 1× 10-4 mol/L): 35.29±0.97%
- inhibitive ratio T-24 (T-24; metal salts 1× 10-4 mol/L): 27.09±1.11%
- inhibitive ratio NCI-H460 (NCI-H460; metal salts 1× 10-4 mol/L): 25.41±1.25%
- inhibitive ratio HL-7702 ([1]; metal salts 1× 10-4 mol/L): 30.12±1.57%

SMILES: COc1cc2ccnc3c2c(c1OC)-c1ccccc1C3=O [LY, lysicamine]
- inhibitive ratio Hep-G2 (HepG2; 20 μmol/L, 48 h): 53.13±1.19%
- IC50 (HepG2; Homo sapiens, HepG2, 48 h): 23.9 ± 0.41 µM
- change of CD spectrum of ct-DNA / binding (ct-DNA): the binding was weak
- inhibitive ratio BEL-7404 (BEL-7404; 20 μmol/L): 32.27±1.73%
- IC50 (BEL-7404; Homo sapiens, BEL-7404): 47.5 ± 1.65 µM
- inhibitive ratio T-24 (T-24; 20 μmol/L): 42.40±2.14%
- IC50 (T-24; Homo sapiens, T-24): 34.5 ± 1.96 µM
- inhibitive ratio NCI-H460 (NCI-H460; 20 μmol/L): 52.85±0.32%
- IC50 (NCI-H460; Homo sapiens, NCI-H460): 19.14 ± 0.18 µM
- effect on cell cycle progression (HepG2 cells): only blocked the cell cycle in the G1 phase
- inhibitive ratio HL-7702 ([1]; 20 μmol/L, normal liver cell): 45.49±0.78% and 45.5%
- IC50 ([1]; Homo sapiens, L02, normal liver cell): 29.3 ± 0.72 µM
- DNA cleavage activity on supercoiled pBR322 DNA (pBR322 plasmid DNA): did not change the supercoiled DNA and its migration rate

SMILES: O.O.O.O.O.O.[Mn+2].[O-][Cl+3]([O-])([O-])[O-].[O-][Cl+3]([O-])([O-])[O-] [Mn(ClO4)2·6H2O, reference compound]
- inhibitive ratio Hep-G2 (HepG2; [2]): 18.52±0.67%
- inhibitive ratio BEL-7404 (BEL-7404; metal salts 1× 10-4 mol/L): 25.84±1.36%
- inhibitive ratio T-24 (T-24; metal salts 1× 10-4 mol/L): 24.08±1.86%
- inhibitive ratio NCI-H460 (NCI-H460; metal salts 1× 10-4 mol/L): 30.12±0.46%
- inhibitive ratio HL-7702 ([1]; metal salts 1× 10-4 mol/L): 23.06±1.64%

SMILES: N.N.[Cl][Pt][Cl] [Cisplatin, cisplatin, reference compound]
- inhibitive ratio Hep-G2 (HepG2; 20 μmol/L, 48 h): 60.63±0.99%
- IC50 (HepG2; MTT, 48 h, mean ± SD from five independent experiments): 18.5 ± 0.78 µM
- inhibitive ratio BEL-7404 (BEL-7404; 20 μmol/L): 55.15±1.18%
- IC50 (BEL-7404): 12.4 ± 0.38 µM
- inhibitive ratio T-24 (T-24; 20 μmol/L): 47.58±2.05%
- IC50 (T-24): 28.1 ± 1.88 µM
- inhibitive ratio NCI-H460 (NCI-H460; 20 μmol/L): 53.88±1.29%
- IC50 (NCI-H460): 18.3 ± 1.02 µM
- BW% (body weight change) (HepG2 xenograft; 2.0 mg/kg per 2 days): -25.8%
- loss in body weight (HepG2 xenograft; 2.0 mg/kg per 2 days): 25.8%
- TGI (HepG2 xenograft; 2.0 mg/kg per 2 days i.p.): 83.16%
- inhibitive ratio HL-7702 ([1]; 20 μmol/L, normal liver cell): 68.95±1.42% and 68.9%
- IC50 ([1]; normal liver cell): 15.7 ± 1.27 µM
